Tests used:
Assay type in all cases: cell-based, mouse
[1] = system: HC11 cells; assay: Visualization of FACS-purified HC11 subpopulations sorted on DNA content (nuclei number); details: sorted on DNA content 4C or >4C
Protocol: (§1) […] Drugs were maintained through the differentiation process and added with every change of media.
Mammary gland CK8+ epithelial cells or HC11 were sorted based on DNA content using BD FACS Aria II Cell Sorter. After sorting, cells were stained in suspension using Phalloidin-iFluor 488 Reagent (Abcam, ab176753) for 30 min at room temperature in darkness. Cells were spined down onto microscopy slides (Fisher, 12-550-15) using Cytospin 2 (Shandon, 599X52) at 500 rpm for 3 min. Cells were mounted using fluoromount-G (Southern Biotech, 0100-01) and visualized using Zeiss Axio Imager Microscope.

[2] = system: HC11 cells; assay: Milk production markers in differentiated HC11 (milk domes, Csn2 RT-qPCR, CSN2 WB, PLIN2 ICC)
Protocol: (§2) The HC11 cell line was obtained from American Type Culture Collection (ATCC) and routinely checked for mycoplasma (Mycoplasma PCR kit, ABM, G238). Undifferentiated HC11 cells were cultured in growing medium (RPMI-1640; Thermo Fisher Scientific, 72400047), supplemented with 10% FBS, 5 μg/ml insulin (Millipore-Sigma, 16634), 10 ng/ml epidermal growth factor (EGF; Preprotech, AF-100-15) and 1× AntiAnti (Thermo Fisher Scientific, 15240112) at 37° C. with 5% CO2. Cells were grown to confluency and maintained in growing medium for 2 days, until they became competent. Competent HC11 cells were primed for differentiation by culturing them in priming medium [RPMI-1640 supplemented with 5 μg/ml insulin, 1 μM dexamethasone (Millipore-Sigma, D4902-1 G) and 1× Anti-Anti] for 24 h at 37° C. with 5% CO2. To induce differentiation, primed HC11 cells were cultured in DIP Medium [RPMI-1640, supplemented with 10% FBS, 5 μg/ml insulin, 1 μM dexamethasone, 1× anti-anti and 3 μg/ml Prolactin (NHPP, oPRL-21)] at 37° C. with 5% CO2.
as §1
Whole cell lysates were prepared using 1×NP40 lysis buffer (Thermo Fisher Scientific, FNN0021) supplemented with Pierce Protease and Phosphatase inhibitors (Thermo Fisher Scientific, A32959). Cells were washed with ice-cold PBS (GIBCO, 14190136) and lysed direct in buffer and kept at 4° C. rocking at 70 rpm for 30 min. Lysed cells were collected and centrifuged at 12,000 rpm at 4° C. for 15 min. Protein concentration was quantified using Qubit 4 fluorometer (Thermo Fisher, Q33238). Samples were resolved by SDS page and transferred to polyvinylidene difluoride (PVDF, Millipore-Sigma, IPVH00010) for 60 min at 250 mA. Immunoblots were blocked for 1 h at room temperature using either 5% non-fat milk or 5% BSA TBST. Primary antibodies [anti-GAPDH (SCBT, sc-365062), anti-Actin (SCBT, sc-47778), anti-Cyclin B1 (SCBT, sc-245), anti-Cyclin E1 (Millipore-Sigma, SAB4503516) and anti-CSN2 (ABclonal, A12749)] were incubated overnight at 4° C. in a rocker. HRP-conjugated secondary antibodies ([…]) were used for 1 h at room temperature. Immunoblots were developed using Clarity ECL (Bio-Rad), detected using a Bio-Rad ChemiDoc MP Image, and quantified using ImageJ.
HC11 cells were fixed using ice-cold MeOH for 10 min. After washing with 1×PBS, cells were incubated for 1 h at room temperature with primary antibodies [anti-γH2AX (SCBT, sc-517348), anti-pATR (Genetex, GTX128145), anti-PLIN2 (generously provided by Jim McManaman)] in a humid incubation chamber. After incubation, cells were washed three times using 1×PBS and incubated for 1 h at room temperature in darkness using corresponding Alexa Fluor AffiniPure secondary antibodies (Jackson ImmunoResearch) and Phalloidin-iFluor 488 Reagent (Abcam, ab176753) when indicated. Cells were washed three times using 1×PBS and incubated with Hoechst 33342 (AnaSpec, AS-83218) for 10 min. Cells were mounted using fluoromount-G (Southern Biotech, 0100-01) and visualized using Zeiss Axio Imager Microscope. Integrated density of PLIN2, nuclear γH2AX and nuclear pATR was quantify using ImageJ.
For RNA isolation from FACS purified populations, mammary gland cell suspensions were blocked using Mouse BD Fc Block™ (BD Biosciences) for 10 min. Cells were subsequently resuspended on 1×PBS at a density of 10^7 cells/ml and stained with the following antibodies for 30 min on ice: anti-CD24 PE (Stem Cell Technologies, 60099PE.1), anti-CD29 PE-Cy7 (BioLegend, 102222), anti-CD45-APC (BioLegend,105826), Ter119-APC (BD Biosciences, 561033), CD31-ACP (BD Biosciences, 551262). Propidium iodide at a final concentration of 0.5 μg/ml was used for the discrimination of dead cells. Stromal, basal and luminal mammary populations were sorted using a BD FACS Aria II Cell Sorter. […]

[3] = system: HC11 cells; assay: FACS DNA content analysis of HC11 cells during lactogenic differentiation
Protocol: as §2, §1
For DNA content analysis of the mammary gland CK8^+ epithelial population, mammary gland cells suspension was obtained as described above. Cells were fixed in ice-cold 70% EtOH at a final concentration of 10^6 cells/ml. During fixation, cells were vigorously vortexed for 1 min to avoid the formation of cell aggregates. Cells were washed twice with washing buffer [1×PBS containing 5% FBS and 0.5% tween 20 (Fisher Chemical, BP337500)] and centrifuged at 2,000 rpm for 5 min at 4° C. Cell pellet was incubated for 1 h at room temperature with anti-CK8 (Developmental Studies Hybridoma Lab, TROMA-1), anti-GFP (Thermo Fisher, A01704) or corresponding rat (Thermo-Fisher, 10700) or rabbit (Thermo-Fisher, 10500C) IgG isotype controls. Cells were washed twice and incubated for 1 h at room temperature in darkness with FITC anti-Rat (Thermo Fisher, A24544) or FITC anti-Rabbit (Thermo Fisher, A16030) and APC anti-Rat (Jackson ImmunoResearch, 712-136-153). Cells were washed twice and resuspended in propidium iodide solution [1×PBS containing 25 μg/ml of propidium iodide (Thermo Fisher, P3566) and 100 μg/ml of RNAse (Thermo Fisher, 12091021)]. For DNA content analysis on HC11, cells were washed with 1×DPBS (GIBCO, 14190-250) and harvested using 0.05% Trypsin-EDTA (GIBCO, 25300-062). Cell suspension was washed with 1×DPBS and centrifuged at 1,000 rpm for 5 min at 4° C. Cell pellet was fixed in ice-cold 70% EtOH and then vortexed vigorously to avoid cell aggregates. After fixation, cells were washed with washing buffer [1×PBS (GIBCO, 14190136) supplemented with 5% FBS] and centrifuged at 2,000 rpm for 5 min at 4° C. The pellet was resuspended in propidium iodide solution. Cell suspensions were filtered through a 70 μm cell strainer (Falcon, 08-771-2) and analyzed using a BD LSRII cytometer or a BD FACS Aria II Cell Sorter. Populations were analyzed using FlowJo.

[4] = Ro-3306 5 μM, differentiated HC11 (DIP3)
[5] = blebbistatin 30 uM, differentiated HC11

SMILES	nuclei number of polyploid cells generated (mono-, bi-, multinucleated) ([1]; Ro-3306, differentiated HC11 (DIP3))	CSN2 expression, RT-qPCR [2, 4]	CSN2 expression, WB [2, 4]	endoreplication / polyploidy (FACS DNA content) ([3]; Ro-3306 5 μM, DIP3)	mitotic arrest / accumulation of tetraploid cells (FACS DNA content) ([3]; undifferentiated HC11 at 80% confluence, Ro-3306 5 μM, 6 hours after treatment)	nuclei number of cells generated (mono-, bi-, multinucleated) ([1]; blebbistatin, differentiated HC11 (DIP3))	expression of Periplin-2 (PLIN2), ICC [2, 5]	expression of β-Casein (Csn2), RT-qPCR [2, 5]	formation of milk-containing domes [2, 5]	endoreplication / polyploidy (FACS DNA content) ([3]; blebbistatin 30 uM, differentiation day 3 (DIP3))	mitotic arrest / proportion of tetraploid cells (FACS DNA content) ([3]; undifferentiated HC11 at 80% confluence, blebbistatin 30 uM, 6 hours post-treatment)
O=C1NC(=NCc2cccs2)S/C1=C\c1ccc2ncccc2c1 [Ro-3306]	generates mono-, bi- and multinucleated polyploid cells	increases	increases	undergo further endoreplication, becoming polyploid	efficiently induces mitotic arrest, as detected by the accumulation of tetraploid cells	–	–	–	–	–	–
Cc1ccc2c(c1)C(=O)C1(O)CCN(c3ccccc3)C1=N2 (centres unmarked) [blebbistatin]	–	–	–	–	–	predominantly generates bi- and multinucleated cells	increased expression	increased expression	increase in the formation of milk-containing domes	undergo further endoreplication, becoming polyploid	efficiently induces mitotic arrest in HC11 cells, increasing the proportion of tetraploid cells
